The source of these data is BindingDB's records for doi:10.1021/jm00167a032 (Sankyo, 1990).

For the experiment, the target named is Arachidonate 5-lipoxygenase (Cavia porcellus). The experiment is described as follows: Evaluated for inhibition of the formation and release of 5-lipoxygenase in guinea pig peritoneal PMNL.

`Cc1c(C)c2c(c(C)c1O)SCO2` yielded an IC50 of 290 nM. Take `Cc1c(C)c2c(c(C)c1O)SC(CCC(N)=O)O2` (stereo unspecified): the IC50 was 520 nM.

For `Cc1c(C)c2c(c(C)c1O)SC(c1ccccc1)O2` (stereo unspecified), the midpoint of inhibition, the IC50, lay at 71 nM. As for `CCCCCCCC1Oc2c(C)c(C)c(O)c(C)c2S1` (stereo unspecified), the figure is 220 nM; as for `CCCCC1Oc2c(C)c(C)c(O)c(C)c2S1` (stereo unspecified), 59 nM; as for `CCCC1Oc2c(C)c(C)c(O)c(C)c2S1` (stereo unspecified), 25 nM.

What is called IC50 is the concentration that inhibits the measured activity by half. A high value points to a need for much substance.
